# Biological target: benzodiazepine receptor
# Test: Displacement of 3H-flunitrazepam from benzodiazepine receptors in vitro (IC50)
# Format: binding
# Conditions: rat forebrain, 3H-flunitrazepam 1.0 nM, 0° C.
# Source text: For example, it is known that certain locations in the central nervous system of vertebrates have a high specific affinity for bonding 1,4 and 1,5-benzodiazepines. (See, e.g., R. F. Squires & C. Braestrup, Nature [London] 266 [1977], 734, which is incorporated by reference herein). These locations are called benzodiazepine receptors.
# This displacement activity of the compounds of this invention has been determined by measuring IC50 and ED50 values. The IC50 value is the concentration which causes a 50% displacement of the specific binding of ^3 H-flunitrazepam (1.0 nM, 0° C.) in samples with a total volume of 0.55 ml of a suspension of brain membrane, e.g., from rats.
# The displacement test is carried out as follows:
# 0.5 ml of a suspension of untreated rat forebrain in 25 mM KH2 PO4, at a pH of 7.1 (5-10 mg of tissue per sample) were incubated with ^3 H-diazepam (specific activity 14.4 Ci/millimole, 1.9 nM) or ^3 H-flunitrazepam (specific activity 87 Ci/millimole, 1.0 nM) for 40-60 minutes at 0° C. After incubation, the suspension is filtered through a glass frit, the residue is washed twice with a cold buffer solution and the radioactivity is measured by scintillation counting.
# The test is then repeated, except prior to addition of the radioactively marked benzodiazepine, a given amount or an excess amount of the compound whose displacement activity is to be ascertained, is added. The IC50 value can then be computed from the test results obtained.
row,Structure (SMILES),"In vitro IC50, inhibition of 3H flunitrazepam binding (Affinity for the benzodiazepine receptor)"
1,Cc1noc(-c2cc3c(cn2)[nH]c2ccccc23)n1,0.00056 µg/mL
2,CNC(=O)CC(=O)c1cc2c(cn1)[nH]c1ccccc12 [COCH2 CONHCH3],> 0.1 µg/mL
3,"O=C(c1ccccc1)c1cc2c(cn1)[nH]c1ccccc12 [COC6 H5, 3-benzoyl-beta-carboline]",0.00427 µg/mL
4,"C(=NOCc1ccccc1)c1cc2c(cn1)[nH]c1ccccc12 [CHNOCH2 C6 H5, beta-carboline-3-carboxaldehyde-oxime-benzylether]",0.0525 µg/mL
5,"O=CNC(=O)c1cc2c(cn1)[nH]c1ccccc12 [CONHCHO, beta-carboline-3-(N-formylcarboxamide)]",0.034 µg/mL
6,CN(C)N=Cc1cc2c(cn1)[nH]c1ccc(S(=O)(=O)N(C)C)cc12 [drawing 32],0.004 µg/mL
7,"CNN=Cc1cc2c(cn1)[nH]c1ccccc12 [CHNNHCH3, beta-carboline-3-carboxaldehyde-methylhydrazone]",0.149 µg/mL
8,"ON=Cc1cc2c(cn1)[nH]c1ccccc12 [CHNOH, beta-carboline-3-carboxaldehyde-oxime]",0.0087 µg/mL
9,Cc1n[nH]c(-c2cc3c(cn2)[nH]c2ccccc23)n1,0.096 µg/mL
10,"NC(=O)NN=Cc1cc2c(cn1)[nH]c1ccccc12 [CHNNHCONH2, beta-carboline-3-carboxaldehyde-semicarbazone]",> 0.1 µg/mL
11,CONC=NC(=O)c1cc2c(cn1)[nH]c1ccccc12,0.1 µg/mL
12,CN1N=C(c2cc3c(cn2)[nH]c2ccccc23)CC1=O,> 0.4 µg/mL
13,CN(C)C=NC(=O)c1cc2c(cn1)[nH]c1ccccc12,0.09 µg/mL
14,c1ccc2c(c1)[nH]c1cnc(-c3nc[nH]n3)cc12,0.104 µg/mL
15,O=C1CC(c2cc3c(cn2)[nH]c2ccccc23)=NO1,0.156 µg/mL
16,C(=NN1CCCC1)c1cc2c(cn1)[nH]c1ccccc12 [drawing 31],> 0.1 µg/mL
17,O=C1CC(c2cc3c(cn2)[nH]c2ccccc23)=NN1,> 0.1 µg/mL
18,Cn1cnc(-c2cc3c(cn2)[nH]c2ccccc23)n1,> 0.4 µg/mL
19,"CCCCC(=O)c1cc2c(cn1)[nH]c1ccccc12 [COCH2 CH2 CH2 CH3, 3-pentanoyl-beta-carboline]",0.02 µg/mL
20,C(=Nn1cnnc1)c1cc2c(cn1)[nH]c1ccccc12,> 0.1 µg/mL
21,Cc1nc(-c2cc3c(cn2)[nH]c2ccccc23)n(C)n1,0.179 µg/mL
22,CN(C)N=Cc1cc2c(cn1)[nH]c1ccccc12 [drawing 13],0.0417 µg/mL
23,CN1CCN(N=Cc2cc3c(cn2)[nH]c2ccccc23)CC1,0.1 µg/mL
24,CCN(CC)N=Cc1cc2c(cn1)[nH]c1ccccc12 [drawing 23],> 0.1 µg/mL
25,C(=NN1CCOCC1)c1cc2c(cn1)[nH]c1ccccc12 [drawing 28],> 0.1 µg/mL
26,CC(=O)ON=Cc1cc2c(cn1)[nH]c1ccccc12 [CHNOCOCH3],0.169 µg/mL
27,"CN(C)S(=O)(=O)c1ccc2[nH]c3cnc(C=O)cc3c2c1 [CHO, drawing 30, 6-dimethylsulfamoyl-beta-carboline-3-carboxaldehyde]",> 0.1 µg/mL
28,C(=NN1CCCCC1)c1cc2c(cn1)[nH]c1ccccc12 [drawing 27],> 0.1 µg/mL
29,"CN(C)S(=O)(=O)c1ccc2[nH]c3cnc(C=NO)cc3c2c1 [CHNOH, drawing 36]",0.0017 µg/mL
30,CC(=NO)c1cc2c(cn1)[nH]c1ccccc12 [drawing 11],> 0.1 µg/mL

# Test system: benzodiazepine receptor
# Test: In vivo inhibition of 3H-flunitrazepam binding to the benzodiazepine receptor in living brain (ED50)
# Conditions: mice, subcutaneous, 3H-flunitrazepam i.v. 15 min later
row,Structure (SMILES),"In vivo ED50, inhibition of 3H flunitrazepam binding (Affinity for the benzodiazepine receptor)"
1,Cc1noc(-c2cc3c(cn2)[nH]c2ccccc23)n1,15 mg/kg
2,CNC(=O)CC(=O)c1cc2c(cn1)[nH]c1ccccc12 [COCH2 CONHCH3],> 250 mg/kg
3,"O=C(c1ccccc1)c1cc2c(cn1)[nH]c1ccccc12 [COC6 H5, 3-benzoyl-beta-carboline]",223 mg/kg
4,"C(=NOCc1ccccc1)c1cc2c(cn1)[nH]c1ccccc12 [CHNOCH2 C6 H5, beta-carboline-3-carboxaldehyde-oxime-benzylether]",> 250 mg/kg
5,"O=CNC(=O)c1cc2c(cn1)[nH]c1ccccc12 [CONHCHO, beta-carboline-3-(N-formylcarboxamide)]",197 mg/kg
6,"C(=NNc1ccccc1)c1cc2c(cn1)[nH]c1ccccc12 [CHNNHC6 H5, beta-carboline-3-carboxaldehyde-phenylhydrazone]",> 250 mg/kg
7,CN(C)N=Cc1cc2c(cn1)[nH]c1ccc(S(=O)(=O)N(C)C)cc12 [drawing 32],35 mg/kg
8,"CNN=Cc1cc2c(cn1)[nH]c1ccccc12 [CHNNHCH3, beta-carboline-3-carboxaldehyde-methylhydrazone]",92 mg/kg
9,"ON=Cc1cc2c(cn1)[nH]c1ccccc12 [CHNOH, beta-carboline-3-carboxaldehyde-oxime]",19 mg/kg
10,Cc1n[nH]c(-c2cc3c(cn2)[nH]c2ccccc23)n1,139 mg/kg
11,"CCOC(=O)CC(=O)c1cc2c(cn1)[nH]c1ccccc12 [COCH2 COOC2 H5, 3-carboethoxy-acetyl-beta-carboline]",> 250 mg/kg
12,"NC(=O)NN=Cc1cc2c(cn1)[nH]c1ccccc12 [CHNNHCONH2, beta-carboline-3-carboxaldehyde-semicarbazone]",> 250 mg/kg
13,CONC=NC(=O)c1cc2c(cn1)[nH]c1ccccc12,> 250 mg/kg
14,"O=C(N=CNO)c1cc2c(cn1)[nH]c1ccccc12 [CONCHNHOH, N-[(hydroxyamino)methylene]-beta-carboline-carboxamide]",93 mg/kg
15,CN1N=C(c2cc3c(cn2)[nH]c2ccccc23)CC1=O,> 250 mg/kg
16,CN(C)C=NC(=O)c1cc2c(cn1)[nH]c1ccccc12,> 250 mg/kg
17,c1ccc2c(c1)[nH]c1cnc(-c3nc[nH]n3)cc12,26 mg/kg

row,Structure (SMILES),"In vivo ED50, inhibition of 3H flunitrazepam binding (Affinity for the benzodiazepine receptor)"
1,O=C1CC(c2cc3c(cn2)[nH]c2ccccc23)=NO1,100 mg/kg
2,C(=NN1CCCC1)c1cc2c(cn1)[nH]c1ccccc12 [drawing 31],49 mg/kg
3,O=C1CC(c2cc3c(cn2)[nH]c2ccccc23)=NN1,> 250 mg/kg
4,Cn1cnc(-c2cc3c(cn2)[nH]c2ccccc23)n1,145 mg/kg
5,"CCCCC(=O)c1cc2c(cn1)[nH]c1ccccc12 [COCH2 CH2 CH2 CH3, 3-pentanoyl-beta-carboline]",144 mg/kg
6,C(=Nn1cnnc1)c1cc2c(cn1)[nH]c1ccccc12,> 250 mg/kg
7,Cc1nc(-c2cc3c(cn2)[nH]c2ccccc23)n(C)n1,> 300 mg/kg
8,CN(C)N=Cc1cc2c(cn1)[nH]c1ccccc12 [drawing 13],54 mg/kg
9,CN1CCN(N=Cc2cc3c(cn2)[nH]c2ccccc23)CC1,210 mg/kg
10,CCN(CC)N=Cc1cc2c(cn1)[nH]c1ccccc12 [drawing 23],72 mg/kg
11,C(=NN1CCOCC1)c1cc2c(cn1)[nH]c1ccccc12 [drawing 28],> 250 mg/kg
12,CC(=O)ON=Cc1cc2c(cn1)[nH]c1ccccc12 [CHNOCOCH3],> 250 mg/kg
13,"CN(C)S(=O)(=O)c1ccc2[nH]c3cnc(C=O)cc3c2c1 [CHO, drawing 30, 6-dimethylsulfamoyl-beta-carboline-3-carboxaldehyde]",> 300 mg/kg
14,C(=NN1CCCCC1)c1cc2c(cn1)[nH]c1ccccc12 [drawing 27],> 250 mg/kg
15,"CN(C)S(=O)(=O)c1ccc2[nH]c3cnc(C=NO)cc3c2c1 [CHNOH, drawing 36]",300 mg/kg
16,CC(=NO)c1cc2c(cn1)[nH]c1ccccc12 [drawing 11],186 mg/kg

# From patent US4596808A, “Pharmacologically active 3-substituted beta-carbolines useful as tranquilizers” (Schering Aktiengesellschaft, priority 1980, dated 1986)
